Columns and labels:
[1] = tested on: Staphylococcus aureus (10788 strain); assay: Antimicrobial efficacy of actives against S. aureus in water, 15 seconds contact, NMBS; assay type: cell-based
Method: Selected materials were also tested against a representative Gram positive Staphylococcus aureus.
The following assay describes the testing of 8 materials using 6 dilutions across half of a 96-well micro titre plate (MTP). Using this approach it is possible to assay 16 actives (without replicates) with one full dilution plate, replicating this set up in two halves of the plate columns, 1-6 and 7-12.
Bacterial stock (30 μl) was then added to the prepared 270 μl of the solution of actives in the Screening Plate and mixed, using a multichannel pipette with 8 tips to aspirate and dispense the same volume of bacterial stock in parallel to 8 wells in rows A-H. After a contact time of 15 seconds, the mixtures were quenched by transferring 30 μl volumes of the mixtures into the 270 μl D/E neutralising solution in the prepared dilution plate, using aspiration to mix. After exactly 5 minutes in the D/E neutralising solution, […] were transferred from column 1 to column 2 of the Dilution MTP and mixed, before transferring further 30 μl volumes from column 2 into column 3. This process was repeated serially diluting the bacteria across the plate to column 6.
30 μl volumes from each well in the Dilution MTP were transferred onto pre-labelled segment of Tryptone Soya Agar (TSA) plates starting from the lowest bacterial concentration (highest dilution, column 6) to the highest bacterial concentration (column 1). The TSA plates were allowed to stand for ca. 2 hours so that the 30 μl inocula spots could dry and the plates were then inverted and incubated overnight at 37° C. before enumerating the bacterial colonies at the labelled dilutions to determine the effects of the actives on bacterial growth.
Mean bacterial survival numbers NMBS (expressed in Log CFU/ml) are obtained by first determining the segment of the TSA plate where the number of bacterial colonies is countable. From the colony number in this segment. NMBS is calculated by the formula: NMBS=log {Ncol·10^DF·100/3} Here, Ncol is the colony count, and DF is the dilution factor taken from the MTP-well corresponding to the TSA plate segment (i.e. DF may range from 1 for the quench, to 6 for the highest dilution). The factor 100/3 is a conversion factor from the volume of the inocula spot to one milliliter.
Every assay test was performed in triplicate.
Thus, a value of NMBS as of about 7 corresponds to a count of about […] from the fifth dilution well, i.e. with DF=5. Such a count of about 7 is generally observed when bacteria are exposed to non-biocidal materials. In case no surviving colonies are observed in any segment of the TSA plate, this is interpreted as complete kill and a value of NMBS=0 is reported.
S. aureus Bacterial stock was prepared as shown below and the antibacterial efficacy of the active was carried out as explained earlier for E. Coli.
An overnight culture of Staphylococcus aureus (10788 strain) was inoculated onto a Tripticase Soy Agar (TSA) plate and grown for ca. 18 hrs at 37° C. The culture of S. aureus was washed from the plate using sterile saline (0.85% NaCl) solution and a sterile spreader and suspended in 50 ml saline. This suspension was separated into equal volumes and centrifuged at 4000 rpm for 15 minutes. Following centrifugation the pellet was re-suspended in saline to give a final concentration of 0.35 OD620 equivalent to about 10^8 cells per milliliter for this particular organism. Here. OD620 indicates the absorbance of a sample in a cuvette of 1.0 cm path length at a wavelength of 620 nm. This bacterial stock was used for assaying against antimicrobial actives (in triplicate).

[2] = tested on: S. aureus ATCC 6538; assay: Synergy of terpinyl alcohols with phenolic compounds in water, 15 seconds contact, plate count log reduction; assay type: cell-based, Staphylococcus aureus; settings: […] alone
Method: Liquid actives were used directly. Solid actives were dissolved in alcohol and a 50% stock was made.
The culture was grown overnight in Tryptone soya agar. It was suspended in saline (0.85% NaCl) to a con. of 1.5×10^8-5×10^8 cells/ml
To 9 ml water the actives were added to give the desired concentration. 1 ml of the culture was added and mixed. After 15 seconds contact 1 ml aliquot was removed and added to a neutraliser and kept for 5 minutes. A control of untreated cells was similarly processed. It was then diluted and plated. The plates were incubated at 37° C. for 24 hours. The colonies on the plates were counted. The counts were converted to log10. The log. no. of survivors was determined and log reduction calculated.

With `C=C(C)C1CCC(C)C(O)C1` (stereo not drawn) [2-methyl-5-(prop-1-en-2-yl)cyclohexanol] the NMBS ([1]; 0.5% w/v alone, S. aureus, 15 s) was 7.34 log CFU/ml, the MBC ([1]; component alone, against S. aureus, in water) was greater than 1.5 % w/v and the “Log reduction S. aureus ATCC 6538” value [2] was −0.15.
